Reference: patent publication US20260048047A1, “SMALL-MOLECULE ACTIVATORS OF MYCOBACTERIUM TUBERCULOSIS ADENYLYL CYCLASE” (priority 2022, published 2026)

System: Mtb in macrophages
Assay: Inhibition of Mtb replication in macrophages (intramacrophage EC50)
Format: cell-based, Mycobacterium tuberculosis
Conditions: Table S2; read-out: Macrophages EC50

Cn1ncnc1CC(=O)N1[C@@H]2CC(c3nc(-c4ccc(Cl)c(Cl)c4)no3)C[C@H]1C2 (stereo partly drawn) [mCLF025] gave an EC50 greater than 30 µM.

System: M. tuberculosis
Assay: Extracellular activity against M. tuberculosis in cholesterol media (Alamar Blue reduction assay)
Format: cell-based, Mycobacterium tuberculosis
Conditions: Mycobacterium tuberculosis, 240 h, 7H12-Cholesterol media, 10 days; read-out: Cholesterol broth: alamar blue--EC50

Cc1noc(CC(=O)N2CCC3(CCC3c3nc(-c4ccc(Cl)c(Cl)c4)no3)CC2)n1 (stereo not drawn) [Compound 239, 1-(1-(3-(3,4-dichlorophenyl)-1,2,4-oxadiazol-5-yl)-7-azaspiro[3.5]nonan-7-yl)-2-(3-methyl-1,2,4-oxadiazol-5-yl)ethan-1-one] and Cc1noc(CC(=O)N2CCC3(CCC3c3nc(-c4ccc(F)cc4)no3)CC2)n1 (stereo not drawn) [Compound 240, 1-(1-(3-(4-fluorophenyl)-1,2,4-oxadiazol-5-yl)-7-azaspiro[3.5]nonan-7-yl)-2-(3-methyl-1,2,4-oxadiazol-5-yl)ethan-1-one] cannot be ordered by EC50: greater than 25 µM for the first, greater than 10 µM for the second.

Cc1nonc1CC(=O)N1CCC2(CCC2c2nc(-c3ccc(F)cc3)no2)CC1 (stereo not drawn) [Compound 241, 1-(1-(3-(4-fluorophenyl)-1,2,4-oxadiazol-5-yl)-7-azaspiro[3.5]nonan-7-yl)-2-(4-methyl-1,2,5-oxadiazol-3-yl)ethan-1-one] and Cc1nonc1CC(=O)N1CCC2(CCC2n2nnc(-c3ccc(F)cc3)n2)CC1 (stereo not drawn) [Compound 258, 1-(1-(5-(4-fluorophenyl)-2H-tetrazol-2-yl)-7-azaspiro[3.5]nonan-7-yl)-2-(4-methyl-1,2,5-oxadiazol-3-yl)ethan-1-one] cannot be ordered by EC50: greater than 10 µM for the first, greater than 25 µM for the second.

Cc1noc(CC(=O)N2CC3CC(C2)C3n2nnc(-c3ccc(F)cc3)n2)n1 (stereo not drawn) [Compound 242, 1-(6-(5-(4-fluorophenyl)-2H-tetrazol-2-yl)-3-azabicyclo[3.1.1]heptan-3-yl)-2-(3-methyl-1,2,4-oxadiazol-5-yl)ethan-1-one] and Cc1nonc1CC(=O)N1CC2CC(C1)C2n1nnc(-c2ccc(F)cc2)n1 (stereo not drawn) [Compound 243, 1-(6-(5-(4-fluorophenyl)-2H-tetrazol-2-yl)-3-azabicyclo[3.1.1]heptan-3-yl)-2-(4-methyl-1,2,5-oxadiazol-3-yl)ethan-1-one] cannot be ordered by EC50: greater than 25 µM for the first, greater than 10 µM for the second.

Cc1nonc1CC(=O)N1CCCC(n2cc(C(=O)N3CCOCC3)nn2)C1 (stereo not drawn) [Compound 244, 2-(4-methyl-1,2,5-oxadiazol-3-yl)-1-(3-(4-(morpholine-4-carbonyl)-1H-1,2,3-triazol-1-yl)piperidin-1-yl)ethan-1-one] and Cc1nonc1CC(=O)N1CCCC(n2cc(C(=O)NCCO)nn2)C1 (stereo not drawn) [Compound 246, N-(2-hydroxyethyl)-1-(1-(2-(4-methyl-1,2,5-oxadiazol-3-yl)acetyl)piperidin-3-yl)-1H-1,2,3-triazole-4-carboxamide] cannot be ordered by EC50: greater than 10 µM for the first, greater than 10 µM for the second.

CCN(CC)C(=O)c1cn(C2CCCN(C(=O)Cc3nonc3C)C2)nn1 (stereo not drawn) [Compound 245, N,N-diethyl-1-(1-(2-(4-methyl-1,2,5-oxadiazol-3-yl)acetyl)piperidin-3-yl)-1H-1,2,3-triazole-4-carboxamide] and Cc1nonc1CC(=O)N1CCCC(n2nnc(-c3ccc(F)cc3)n2)C1 (stereo not drawn) [Compound 248, 1-(3-(5-(4-fluorophenyl)-2H-tetrazol-2-yl)piperidin-1-yl)-2-(4-methyl-1,2,5-oxadiazol-3-yl)ethan-1-one] cannot be ordered by EC50: greater than 10 µM for the first, greater than 10 µM for the second.

Compared with Cc1nonc1CC(=O)N1CCC2(CC1)CC(n1nnc(-c3ccc(F)cc3)n1)C2 [Compound 247, 1-(2-(5-(4-fluorophenyl)-2H-tetrazol-2-yl)-7-azaspiro[3.5]nonan-7-yl)-2-(4-methyl-1,2,5-oxadiazol-3-yl)ethan-1-one], Cc1nonc1CC(=O)N1CCC(c2cnc(-c3ccc(F)cc3)nc2)CC1 [Compound 252, 1-(4-(2-(4-fluorophenyl)pyrimidin-5-yl)piperidin-1-yl)-2-(4-methyl-1,2,5-oxadiazol-3-yl)ethan-1-one] is 2.3-fold higher in EC50: 1.25 µM for the first, 2.91 µM for the second. The first is the more potent here.

Going from Cc1nonc1CC(=O)N1CC2CCC(C1)C2c1nc(-c2ccc(F)cc2)no1 (stereo not drawn) [Compound 249, 1-(8-(3-(4-fluorophenyl)-1,2,4-oxadiazol-5-yl)-3-azabicyclo[3.2.1]octan-3-yl)-2-(4-methyl-1,2,5-oxadiazol-3-yl)ethan-1-one] to Cc1nonc1CC(=O)N1CC(c2nc(-c3ccc(F)cc3)no2)C1 [Compound 257, 1-(3-(3-(4-fluorophenyl)-1,2,4-oxadiazol-5-yl)azetidin-1-yl)-2-(4-methyl-1,2,5-oxadiazol-3-yl)ethan-1-one], the EC50 rises from 1.29 µM to greater than 10 µM. The first is the more potent here.

Cc1nonc1CC(=O)N1CCN(c2ncn(-c3ccc(F)cc3)n2)CC1 [Compound 250, 1-(4-(1-(4-fluorophenyl)-1H-1,2,4-triazol-3-yl)piperazin-1-yl)-2-(4-methyl-1,2,5-oxadiazol-3-yl)ethan-1-one] and Cc1nonc1CC(=O)N1CCC(c2ncc(-c3ccc(F)cc3)cn2)CC1 [Compound 253, 1-(4-(5-(4-fluorophenyl)pyrimidin-2-yl)piperidin-1-yl)-2-(4-methyl-1,2,5-oxadiazol-3-yl)ethan-1-one] cannot be ordered by EC50: greater than 10 µM for the first, greater than 10 µM for the second.

Cc1nonc1NC(=O)C1CCC(c2nc(-c3ccc(F)cc3)no2)CC1 (stereo not drawn) [Compound 251, 4-(3-(4-fluorophenyl)-1,2,4-oxadiazol-5-yl)-N-(4-methyl-1,2,5-oxadiazol-3-yl)cyclohexane-1-carboxamide] and Cc1nonc1CC(=O)N1CCCC(c2nc(-c3ccc(F)cc3)no2)C1 (stereo not drawn) [Compound 256, 1-(3-(3-(4-fluorophenyl)-1,2,4-oxadiazol-5-yl)piperidin-1-yl)-2-(4-methyl-1,2,5-oxadiazol-3-yl)ethan-1-one] cannot be ordered by EC50: greater than 10 µM for the first, greater than 10 µM for the second.

Cc1cccc(OC2CCN(C(=O)Cc3nonc3C)CC2)c1C [Compound 254, 1-(4-(2,3-dimethylphenoxy)piperidin-1-yl)-2-(4-methyl-1,2,5-oxadiazol-3-yl)ethan-1-one] and Cc1nonc1CC(=O)N1CCC(c2ccc(-c3ccc(F)cc3)nn2)CC1 [Compound 255, 1-(4-(6-(4-fluorophenyl)pyridazin-3-yl)piperidin-1-yl)-2-(4-methyl-1,2,5-oxadiazol-3-yl)ethan-1-one] cannot be ordered by EC50: greater than 10 µM for the first, greater than 10 µM for the second.

Same assay, conditions: Table S2; read-out: Cholesterol EC50

Compound Cn1ncnc1CC(=O)N1[C@@H]2CC(c3nc(-c4ccc(Cl)c(Cl)c4)no3)C[C@H]1C2 (stereo partly drawn) [mCLF025] has an EC50 greater than 30 µM.

Same assay, conditions: Table S2 assays

In the case of Cn1ncnc1CC(=O)N1[C@@H]2CC(c3nc(-c4ccc(Cl)c(Cl)c4)no3)C[C@H]1C2 (stereo partly drawn) [mCLF025], the “Potency of trans isomer in words” value is reported as “inactive”.

System: non-replicating M. tuberculosis
Assay: Hu Coats 100-day old culture model
Conditions: added to PB, 50 μM

With CC(=O)NC[C@H]1CN(c2ccc(N3CCOCC3)c(F)c2)C(=O)O1 [LIN, Linezolid, reference compound] the “CFU reduction versus PB” value was “superior CFU reduction”.
